This assay relates to Aβ42 production. The assay is described as follows: Quantification of Aβ peptide in culture of neurons from rat fetus brain (Aβ ELISA). The class given is cell-based. Conditions: rat primary neuronal culture (embryonic day 18 Wistar rat cerebral cortex), cultured three days after addition of compound, Aβx-42 ELISA of the medium, read-out: Aβ42 production reducing effect IC50. The method, then: Quantification of Aβ Peptide in Culture of Neurons from Rat Fetus Brain
(1) Rat Primary Neuronal Culture
Primary neuronal cultures were prepared from the cerebral cortex of embryonic day 18 Wistar rats (Charles River Japan, Yokohama, Japan). Specifically, the embryos were aseptically removed from pregnant rats under ether anesthesia. The brain was isolated from the embryo and immersed in an ice-cold L-15 medium (Invitrogen Corp. Cat #11415-064, Carlsbad, Calif., USA, or SIGMA L1518, for example). The cerebral cortex was collected from the isolated brain under a stereoscopic microscope. The cerebral cortex fragments collected were enzymatically treated in an enzyme solution containing 0.25% trypsin (Invitrogen Corp. Cat #15050-065, Carlsbad, Calif., USA) and 0.01% DNase (Sigma D5025, St. Louis, Mo., USA) at 37° C. for 30 minutes to disperse the cells. Here, the enzymatic reaction was stopped by adding inactivated horse serum to the solution. The enzymatically treated solution was centrifuged at 1,500 rpm for five minutes to remove the supernatant. 5 to 10 ml of a medium was added to the resulting cell mass. Neurobasal medium (Invitrogen Corp. Cat #21103-049, Carlsbad, Calif., USA) supplemented with 2% B27 supplement (Invitrogen Corp. Cat #17504-044, Carlsbad, Calif., USA), 25 μM 2-mercaptoethanol (2-ME, WAKO Cat #139-06861, Osaka, Japan), 0.5 mM L-glutamine (Invitrogen Corp. Cat #25030-081, Carlsbad, Calif., USA), and Antibiotics-Antimycotics (Invitrogen Corp. Cat #15240-062, Carlsbad, Calif., USA) was used as the medium (Neurobasal/B27/2-ME). However, the above Neurobasal medium not supplemented with 2-ME (Neurobasal/B27) was used for the assay. The cells were redispersed by mild pipetting of the cell mass to which the medium was added. The cell dispersion was filtered through a 40-μm nylon mesh (Cell Strainer, Cat #35-2340, Becton Dickinson Labware, Franklin Lakes, N.J., USA) to remove the remaining cell mass, and thus a neuronal cell suspension was obtained. The neuronal cell suspension was diluted with the medium and then plated in a volume of 100 μl/well at an initial cell density of 5×10^5 cells/cm^2 in a 96-well polystyrene culture plate pre-coated with poly-L or D-lysine (Falcon Cat #35-3075, Becton Dickinson Labware, Franklin Lakes, N.J., USA coated with poly-L-lysine using the method shown below, or BIOCOAT™ cell environments Poly-D-lysine cell ware 96-well plate, Cat #35-6461, Becton Dickinson Labware, Franklin Lakes, N.J., USA). Poly-L-lysine coating was carried out as follows. 100 μg/ml of a poly-L-lysine (SIGMA P2636, St. Louis, Mo., USA) solution was aseptically prepared with a 0.15 M borate buffer (pH 8.5). 100 μl/well of the solution was added to the 96-well polystyrene culture plate and incubated at room temperature for one or more hours or at 4° C. overnight or longer. The coated 96-well polystyrene culture plate was washed with sterile water four or more times, and then dried or rinsed with, for example, sterile PBS or medium, and used for cell plating. The plated cells were cultured in the culture plate at 37° C. in 5% CO2-95% air for one day. Then, the total amount of the medium was replaced with a fresh Neurobasal™/B27/2-ME medium, and then the cells were cultured for further three days.
The drug was added to the culture plate on Day 4 of culture as follows. The total amount of the medium was removed from the wells, and 180 μl/well of Neurobasal medium not containing 2-ME and containing 2% B-27 (Neurobasal/B27) was added thereto. A solution of the test compound in dimethyl sulfoxide (hereinafter abbreviated as DMSO) was diluted with Neurobasal/B27 at 10-fold of the final concentration. 20 μl/well of the dilution was added to and sufficiently mixed with the medium. The final DMSO concentration was 1% or less. Only DMSO was added to the control group.
The cells were cultured for three days after addition of the compound, and the total amount of the medium was collected. […]
Background: ELISA stands for enzyme-linked immunosorbent assay.

The mark [1] stands for this setting: Rattus norvegicus, Neuron, 72 h.

Read-outs that look alike come from different tables or passages of the source.

A word on the IC50: it is the point on the concentration scale where inhibition reaches its midpoint. On to `COc1nc(/C=C/c2nc3n(n2)CCC[C@@H]3c2ccc(F)c(Cl)c2)ccc1-n1cnc(C)c1` (single isomer, unassigned) [Example 175, (−)-8-(3-chloro-4-fluorophenyl)-2-{(E)-2-[6-methoxy-5-(4-methyl-1H-imidazol-1-yl)pyridin-2-yl]vinyl}-5,6,7,8-tetrahydro-[1,2,4]triazolo[1,5-a]pyridine], for which the IC50 under setting [1] turned out to be 38 nM.
Still for that read-out and setting: the result for `COc1cc(/C=C/c2nc3n(n2)CCCCN3c2ccc(F)cc2)ccc1-n1cnc(C)c1` [Example 165, 8-(4-fluorophenyl)-2-{(E)-2-[3-methoxy-4-(4-methyl-1H-imidazol-1-yl)phenyl]vinyl}-5,6,7,8-tetrahydro-4H-1,3,3a,8-tetraazaazulene] reads 115 nM; that for `COc1nc(/C=C/c2nc3n(n2)CCC[C@H]3c2ccccc2Cl)ccc1-n1cnc(C)c1` (single isomer, unassigned) [Example 193, (−)-8-(2-chlorophenyl)-2-{(E)-2-[6-methoxy-5-(4-methyl-1H-imidazol-1-yl)pyridin-2-yl]vinyl}-5,6,7,8-tetrahydro-[1,2,4]triazolo[1,5-a]pyridine], 80 nM; that for `COc1cc(/C=C/c2nc3n(n2)C[C@@H](O)C[C@@H]3c2cc(F)c(F)c(F)c2)ccc1-n1cnc(C)c1` [Example 108, (6S,8R)-2-{(E)-2-[3-methoxy-4-(4-methyl-1H-imidazol-1-yl)phenyl]vinyl}-8-(3,4,5-trifluorophenyl)-5,6,7,8-tetrahydro-[1,2,4]triazolo[1,5-a]pyridin-6-ol], 29 nM.
On to `COc1cc(/C=C/c2nc3n(n2)CC[C@H](O)[C@@H]3c2cc(F)c(F)c(F)c2)ccc1-n1cnc(C)c1` [Example 106, (7S,8R)-2-{(E)-2-[3-methoxy-4-(4-methyl-1H-imidazol-1-yl)phenyl]vinyl}-8-(3,4,5-trifluorophenyl)-5,6,7,8-tetrahydro-[1,2,4]triazolo[1,5-a]pyridin-7-ol], for which the IC50 under setting [1] was determined as 39 nM.
Same read-out and setting: then `COc1nc(/C=C/c2nc3n(n2)CCC[C@@H]3c2cc(F)c(F)cc2F)ccc1-n1cnc(C)c1` (single isomer, unassigned) [Example 179, (−)-8-(2,4,5-trifluorophenyl)-2-{(E)-2-[6-methoxy-5-(4-methyl-1H-imidazol-1-yl)pyridin-2-yl]vinyl}-5,6,7,8-tetrahydro[1,2,4]triazolo[1,5-a]pyridine], with 22 nM.
Turning to `COc1nc(/C=C/c2nc3n(n2)CCC[C@H]3c2ccc(F)c(F)c2F)ccc1-n1cnc(C)c1` [Example 339, (S)-2-{(E)-3-[6-methoxy-5-(4-methyl-1H-imidazol-1-yl)pyridin-2-yl]vinyl}-8-(2,3,4-trifluorophenyl)-5,6,7,8-tetrahydro-[1,2,4]triazole[1,5-a]pyridine], the IC50 amounted to 21 nM.
On to `COc1nc(/C=C/c2nc3n(n2)CCCC3c2ccccc2C)ccc1-n1cnc(C)c1` (single isomer, unassigned; (-)) [Example 319, (−)-2-{(E)-2-[6-methoxy-5-(4-methyl-1H-imidazol-1-yl)pyridin-2-yl]vinyl}-8-(o-tolyl)-5,6,7,8-tetrahydro[1,2,4]triazolo[1,5-a]pyridine], for which the IC50 under setting [1] turned out to be 15 nM.
Still for that read-out and setting: the result for `COc1nc(/C=C/c2nc3n(n2)CCC[C@@H]3c2cccc(F)c2)ccc1-n1cnc(C)c1` (single isomer, unassigned) [Example 189, (−)-8-(3-fluorophenyl)-2-{(E)-2-[6-methoxy-5-(4-methyl-1H-imidazol-1-yl)pyridin-2-yl]vinyl}-5,6,7,8-tetrahydro[1,2,4]triazolo[1,5-a]pyridine] reads 43 nM; that for `COc1nc(/C=C/c2nc3n(n2)CCCC3c2cc(F)cc(F)c2)ccc1-n1cnc(C)c1` (single isomer, unassigned; (-)) [Example 337, (−)-8-(3,5-difluorophenyl)-2-{(E)-2-[6-methoxy-5-(4-methyl-1H-imidazol-1-yl)pyridin-2-yl]vinyl}-5,6,7,8-tetrahydro[1,2,4]triazolo[1,5-a]pyridine], 13 nM; that for `Cc1cn(-c2ccc(/C=C/c3nc4n(n3)CCCC4c3ccccc3C(F)(F)F)nc2OCC(F)F)cn1` (single isomer, unassigned; (-)) [Example 354, (−)-2-{(E)-2-[5-(4-methyl-1H-imidazol-1-yl)-6-(2,2-difluoroethoxy)pyridin-2-yl]vinyl}-8-(2-trifluoromethylphenyl)-5,6,7,8-tetrahydro-[1,2,4]triazolo[1,5-a]pyridine], 37 nM.
On the same count and under the same terms, then `COc1nc(/C=C/c2nc3n(n2)CCCC3c2ccccc2F)ccc1-n1cnc(C)c1` (single isomer, unassigned; (-)) [Example 327, (−)-8-(2-fluorophenyl)-2-{(E)-2-[6-methoxy-5-(4-methyl-1H-imidazol-1-yl)pyridin-2-yl]vinyl}-5,6,7,8-tetrahydro-[1,2,4]triazolo[1,5-a]pyridine], with 20 nM; and `COc1nc(/C=C/c2nc3n(n2)CCCC3c2ccc(F)cc2)ccc1-n1cnc(C)c1` (single isomer, unassigned) [Example 173, (−)-8-(4-fluorophenyl)-2-{(E)-2-[6-methoxy-5-(4-methyl-1H-imidazol-1-yl)pyridin-2-yl]vinyl}-5,6,7,8-tetrahydro-[1,2,4]triazolo[1,5-a]pyridine], with 37 nM; and `COc1cc(/C=C/c2nc3n(n2)CCC[C@@]3(C#N)c2cc(F)c(F)c(F)c2)cnc1-n1cnc(C)c1` (single isomer, unassigned) [Example 229, (−)-2-{(E)-2-[5-methoxy-6-(4-methyl-1H-imidazol-1-yl)pyridin-3-yl]vinyl}-8-(3,4,5-trifluorophenyl)-5,6,7,8-tetrahydro-[1,2,4]triazolo[1,5-a]pyridine-8-carbonitrile], with 169 nM.
On the same count and under the same terms, then `COc1nc(/C=C/c2nc3n(n2)CCCC3c2ccccc2OC(F)(F)F)ccc1-n1cnc(C)c1` (single isomer, unassigned; (-)) [Example 283, (−)-8-(2-trifluoromethoxyphenyl)-2-{(E)-2-[6-methoxy-5-(4-methyl-1H-imidazol-1-yl)pyridin-2-yl]vinyl}-5,6,7,8-tetrahydro-[1,2,4]triazolo[1,5-a]pyridine], with 27 nM; and `COc1nc(/C=C/c2nc3n(n2)CCC[C@H]3c2ccccc2C(F)(F)F)ccc1-n1cnc(C)c1` (single isomer, unassigned) [Example 195], with 17 nM.
Regarding `COc1nc(/C=C/c2nc3n(n2)CCC[C@@H]3c2cc(F)ccc2F)ccc1-n1cnc(C)c1` (single isomer, unassigned) [Example 183, (−)-8-(2,5-difluorophenyl)-2-{(E)-2-[6-methoxy-5-(4-methyl-1H-imidazol-1-yl)pyridin-2-yl]vinyl}-5,6,7,8-tetrahydro[1,2,4]triazolo[1,5-a]pyridine], the IC50 under setting [1] stood at 48 nM.
On the same count and under the same terms, then `COc1nc(/C=C/c2nc3n(n2)CCC3c2cc(F)cc(F)c2)ccc1-n1cnc(C)c1` (stereo not drawn) [Example 384, 7-(3,5-difluorophenyl)-2-{(E)-2-[6-methoxy-5-(4-methyl-1H-imidazol-1-yl)pyridin-2-yl]vinyl}-6,7-dihydro-5H-pyrrolo[1,2-b][1,2,4]triazole], with 36 nM.

The record behind these values is patent US7935815B2, “Imidazoyl pyridine compounds and salts thereof” (Eisai R&D Management Co., Ltd., priority 2007, dated 2011).
